Results taken from US11840525B2, “Use of AURKB small-molecule inhibitors for treatment of non-small cell lung cancer” (Nanjing China-Australia Institute of Translational Medicine …, priority 2016, dated 2023).

Tests used:
AURKB [1] = target: T1, AURKB (Homo sapiens, UniProt Q96GD4); test: In vitro phosphorylation (kinase activity) assay with Flag-AURKB and histone H3; type: biochemical; design: made in house; host or cells: 293T cells (transfected with pcDNA-AURKB-Flag); conditions: 2 μM of TZ47, Flag-AURKB, histone H3 substrate
T1 sequence (Q96GD4 1-345 isoform Q96GD4-5): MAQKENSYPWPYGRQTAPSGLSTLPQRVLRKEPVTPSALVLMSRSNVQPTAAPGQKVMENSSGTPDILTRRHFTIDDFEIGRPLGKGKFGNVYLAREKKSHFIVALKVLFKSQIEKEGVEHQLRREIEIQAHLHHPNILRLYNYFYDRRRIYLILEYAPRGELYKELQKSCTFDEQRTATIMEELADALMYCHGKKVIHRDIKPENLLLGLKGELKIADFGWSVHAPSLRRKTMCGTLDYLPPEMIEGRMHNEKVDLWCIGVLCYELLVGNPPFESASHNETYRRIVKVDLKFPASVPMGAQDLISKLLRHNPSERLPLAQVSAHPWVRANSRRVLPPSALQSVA
Description: (§1) Thus, it is speculated that the treatment affected the activity of a kinase which was able to phosphorylate the H3S10. The following procedures were conducted to verify whether TZ47 inhibited the activity of AURKB directly. First, prokaryotic expression of AURKB protein and purification were performed and then a microscale thermophoresis (MST) was used to detect the binding between TZ47 and AURKB protein by testing the change of microscale thermophoresis caused by the hydrated layer (generally derived from the change of the structure/conformation of biomolecules) based on the directional movement of particles in a microscopic temperature gradient. […] Flag-tagged AURKB protein was then enriched by M2-flag beads (anti-Flag antibody conjugated) from the lysed liquid of 293T cells and used in the in-vitro kinase activity analysis. It can be seen from FIGS. 6A-6B that the Flag-AURKB protein had kinase activity and can phosphorylate histone H3.
The components were mixed according to the above specifications, and reacted at 30° C. for 30 min. After the reaction was completed, the reaction mixture was subjected to western blot assay.

AURKB [2] = target: T1, AURKB; test: Microscale thermophoresis (MST) binding to AURKB protein; design: made in house; host or cells: E. coli BL21; conditions: prokaryotically expressed GST-AURKB, read-out: dissociation constant of binding to AURKB protein
Description: as §1
The cDNA of 293T cells of human was used as the template to amplify the AURKB CDS sequence in the presence of LATaq enzyme. […]
1 mL of the eluent was added to the EP tube containing GST beads, rotated at 4° C. for 30 min and centrifuged at 3,000 rpm for 3 min. […] An appropriate amount of the combined supernatant was subjected to SDS-PAGE for the determination of elution efficiency and protein purity and quantity. • b. […]

A375 = test: Growth inhibition of tumor cells, A375; type: cell-based; conditions: Homo sapiens, A-375; read-out: IC50 against tumor cells, A375
Description: Lung cancer cells A549 were separated into a 96-well plate and respectively added with 10 mM TZ47 stock solution to final concentrations of 0 μM, 0.1 μM, 0.5 μM, 1 μM, 2 μM, 4 μM and 8 μM in respective wells. Then the 96-well plate was incubated at 37° C. for 48 h and the growth of the cells was analyzed by a CCK-8 method. […] It can be seen from Table 1 that TZ47 also plays a desirable role in inhibiting the growth of other cancer cells including colorectal cancer, leukemia, liver cancer, melanoma, breast cancer and ovarian cancer.

kinase activity of AURKB (AURKB [1]): completely inhibited
Kd (AURKB [2]): 135 ± 2 nM
IC50 (A375): 1400 ± 110 nM
SMILES: c1ccc2c(Cc3[nH]c4ccccc4c3Cc3c[nH]c4ccccc34)c[nH]c2c1 [TZ47]
